Assays:
[1] = test system: Human tumor cell lines; experiment: NCI in vitro screen, overall result; conditions: Tables I and II
[2] = test system: HCT-15; experiment: NCI in vitro screen, SRB percent growth, Colon Cancer
[3] = test system: LOX IMVI; experiment: NCI in vitro screen, SRB percent growth, Melanoma
[4] = test system: NCI-H23; experiment: NCI in vitro screen, SRB percent growth, Non-Small Cell Lung Cancer
[5] = test system: SK-MEL-5; experiment: NCI in vitro screen, SRB percent growth, Melanoma
[6] = test system: SNB-19; experiment: NCI in vitro screen, SRB percent growth, CNS Cancer
[7] = test system: DMS 114; experiment: cells; conditions: Homo sapiens
[8] = test system: 786-0; experiment: cells; conditions: Homo sapiens
[9] = test system: SNB-78; experiment: NCI in vitro screen, SRB percent growth, CNS Cancer
[10] = test system: UO-31; experiment: NCI in vitro screen, SRB percent growth, Renal Cancer
[11] = test system: HT29; experiment: NCI in vitro screen, SRB percent growth, Colon Cancer
[12] = test system: KM20L2; experiment: cells; conditions: Homo sapiens
[13] = test system: COLO 205; experiment: NCI in vitro screen, SRB percent growth, Colon Cancer
[14] = test system: HCC-2998; experiment: cells; conditions: Homo sapiens
[15] = test system: HCT-116; experiment: NCI in vitro screen, SRB percent growth, Colon Cancer
[16] = test system: SW-620; experiment: cells; conditions: Homo sapiens
[17] = test system: SK-MEL-28; experiment: NCI in vitro screen, SRB percent growth, Melanoma
[18] = Log10 Concentration -4.0, 100 µM
[19] = Log10 Concentration -7.0, 0.1 µM
[20] = 786-0, read-out: Percent Growth
[21] = KM-20L2, read-out: Percent Growth
[22] = HCC 2998, read-out: Percent Growth
[23] = SW-620, read-out: Percent Growth

In the case of `Cc1ccc2[nH]c3c(C)c4c(c(C)c3c2c1)CN(C)C=C4` [Formula XI], the “effect against many kinds of cancer” value [1] is reported as “effective against many kinds of cancer”, the “Percent Growth” value [2, 18] is reported as -87% and the “Percent Growth” value ([2]; Log10 Concentration -5.0) is reported as 76%. The “Percent Growth” value ([2]; Log10 Concentration -6.0, 1 µM) was 95%, the “Percent Growth” value [2, 19] was 102% and the “Percent Growth” value ([2]; Log10 Concentration -8.0) was 111%. For the same compound, the TGI ([2]; PG=0) was 29.3 µM, the GI50 ([2]; PG=+50) was 14.5 µM and the CC50 ([2]; read-out: LC-50, PG=-50) was 59.6 µM. The “Percent Growth” value [3, 18] was -81%, the “Percent Growth” value ([3]; Log10 Concentration -5.0) was 26% and the “Percent Growth” value ([3]; Log10 Concentration -6.0, 1 µM) was 82%. For the same compound, the “Percent Growth” value [3, 19] was 94%, the “Percent Growth” value ([3]; Log10 Concentration -8.0) was 98% and the TGI ([3]; PG=0) was 17.4 µM. The GI50 ([3]; PG=+50) was 3.67 µM, the CC50 ([3]; read-out: LC-50, PG=-50) was 51.4 µM and the “Percent Growth” value [4, 18] was -85%. The “Percent Growth” value ([4]; Log10 Concentration -5.0) was -75%, the “Percent Growth” value ([4]; Log10 Concentration -6.0, 1 µM) was 42% and the “Percent Growth” value [4, 19] was 97%. The “Percent Growth” value ([4]; Log10 Concentration -8.0) was 95%, the TGI ([4]; PG=0) was 2.29 µM and the GI50 ([4]; PG=+50) was 0.668 µM. For the same compound, the CC50 ([4]; read-out: LC-50, PG=-50) was 6.15 µM, the “Percent Growth” value [5, 18] was -90% and the “Percent Growth” value ([5]; Log10 Concentration -5.0) was -79%. The “Percent Growth” value ([5]; Log10 Concentration -6.0, 1 µM) was 77%, the “Percent Growth” value [5, 19] was 94% and the “Percent Growth” value ([5]; Log10 Concentration -8.0) was 92%. The TGI ([5]; PG=0) was 3.11 µM, the GI50 ([5]; PG=+50) was 1.49 µM and the CC50 ([5]; read-out: LC-50, PG=-50) was 6.49 µM. For the same compound, the “Percent Growth” value [6, 18] was -57%, the “Percent Growth” value ([6]; Log10 Concentration -5.0) was -51% and the “Percent Growth” value ([6]; Log10 Concentration -6.0, 1 µM) was 48%. The “Percent Growth” value [6, 19] was 97%, the “Percent Growth” value ([6]; Log10 Concentration -8.0) was 104% and the TGI ([6]; PG=0) was 3.04 µM. The GI50 ([6]; PG=+50) was 0.897 µM, the CC50 ([6]; read-out: LC-50, PG=-50) was 9.78 µM and the GI50 ([7]; DMS-114) was 0.414 µM. It also gave an IC (TGI) ([7]; DMS-114, read-out: TGI) of 2.12 µM, a GI50 ([8]; 786-0) of 0.523 µM and a CC50 ([8]; 786-0, read-out: LC-50) of 37.3 µM. The activity at 0.01 µM [8, 20] was 102%, the activity at 0.1 µM [8, 20] was 96% and the activity at 1 µM [8, 20] was 32%. For the same compound, the activity at 10 µM [8, 20] was 3%, the activity at 100 µM [8, 20] was -90% and the IC (TGI) ([8]; 786-0, read-out: TGI) was 10.7 µM. The “Percent Growth” value [9, 18] was -75%, the “Percent Growth” value ([9]; Log10 Concentration -5.0) was -33% and the “Percent Growth” value ([9]; Log10 Concentration -6.0, 1 µM) was 38%. The “Percent Growth” value [9, 19] was 128%, the “Percent Growth” value ([9]; Log10 Concentration -8.0) was 131% and the TGI ([9]; PG=0) was 3.41 µM. For the same compound, the GI50 ([9]; PG=+50) was 0.738 µM, the CC50 ([9]; read-out: LC-50, PG=-50) was 25.2 µM and the “Percent Growth” value [10, 18] was -94%. For the same compound, the “Percent Growth” value ([10]; Log10 Concentration -5.0) was 36%, the “Percent Growth” value ([10]; Log10 Concentration -6.0, 1 µM) was 72% and the “Percent Growth” value [10, 19] was 76%. For the same compound, the “Percent Growth” value ([10]; Log10 Concentration -8.0) was 103%, the TGI ([10]; PG=0) was 18.8 µM and the GI50 ([10]; PG=+50) was 3.99 µM. For the same compound, the CC50 ([10]; read-out: LC-50, PG=-50) was 45.7 µM, the “Percent Growth” value [11, 18] was -93% and the “Percent Growth” value ([11]; Log10 Concentration -5.0) was 4%. For the same compound, the “Percent Growth” value ([11]; Log10 Concentration -6.0, 1 µM) was 82%, the “Percent Growth” value [11, 19] was 95% and the “Percent Growth” value ([11]; Log10 Concentration -8.0) was 99%. The TGI ([11]; PG=0) was 11.1 µM, the GI50 ([11]; PG=+50) was 2.57 µM and the CC50 ([11]; read-out: LC-50, PG=-50) was 36 µM. It also gave a GI50 ([12]; KM-20L2) of 2.22 µM, a CC50 ([12]; KM-20L2, read-out: LC-50) of 38 µM and an activity at 0.01 µM [12, 21] of 106%. For the same compound, the activity at 0.1 µM [12, 21] was 95%, the activity at 1 µM [12, 21] was 73% and the activity at 10 µM [12, 21] was 7%. For the same compound, the activity at 100 µM [12, 21] was -91%, the IC (TGI) ([12]; KM-20L2, read-out: TGI) was 11.7 µM and the “Percent Growth” value [13, 18] was -28%. The “Percent Growth” value ([13]; Log10 Concentration -5.0) was -23%, the “Percent Growth” value ([13]; Log10 Concentration -6.0, 1 µM) was 24% and the “Percent Growth” value [13, 19] was 92%. The “Percent Growth” value ([13]; Log10 Concentration -8.0) was 119%, the TGI ([13]; PG=0) was 3.2 µM and the GI50 ([13]; PG=+50) was 0.416 µM. The CC50 ([13]; read-out: LC-50, PG=-50) was > 100 µM, the GI50 ([14]; HCC 2998) was 1.69 µM and the CC50 ([14]; HCC 2998, read-out: LC-50) was 7.89 µM. The activity at 0.01 µM [14, 22] was 105%, the activity at 0.1 µM [14, 22] was 108% and the activity at 1 µM [14, 22] was 84%. It also gave an activity at 10 µM [14, 22] of -65%, an activity at 100 µM [14, 22] of -91% and an IC (TGI) ([14]; HCC 2998, read-out: TGI) of 3.65 µM. For the same compound, the “Percent Growth” value [15, 18] was -81%, the “Percent Growth” value ([15]; Log10 Concentration -5.0) was 3% and the “Percent Growth” value ([15]; Log10 Concentration -6.0, 1 µM) was 83%. For the same compound, the “Percent Growth” value [15, 19] was 103%, the “Percent Growth” value ([15]; Log10 Concentration -8.0) was 113% and the TGI ([15]; PG=0) was 10.9 µM. It also gave a GI50 ([15]; PG=+50) of 2.58 µM, a CC50 ([15]; read-out: LC-50, PG=-50) of 42.8 µM and a GI50 ([16]; SW-620) of 0.279 µM. It also gave a CC50 ([16]; SW-620, read-out: LC-50) of 28.6 µM, an activity at 0.01 µM [16, 23] of 89% and an activity at 0.1 µM [16, 23] of 76%. It also gave an activity at 1 µM [16, 23] of 18%, an activity at 10 µM [16, 23] of -21% and an activity at 100 µM [16, 23] of -85%. For the same compound, the IC (TGI) ([16]; SW-620, read-out: TGI) was 2.87 µM, the “Percent Growth” value [17, 18] was -95% and the “Percent Growth” value ([17]; Log10 Concentration -5.0) was -61%. The “Percent Growth” value ([17]; Log10 Concentration -6.0, 1 µM) was 108%, the “Percent Growth” value [17, 19] was 115% and the “Percent Growth” value ([17]; Log10 Concentration -8.0) was 114%. It also gave a TGI ([17]; PG=0) of 4.37 µM, a GI50 ([17]; PG=+50) of 2.21 µM and a CC50 ([17]; read-out: LC-50, PG=-50) of 8.62 µM.

— patent publication US5441941A, “1,2-dihydroellipticines with activity against CNS specific cancer” (The United States of America as represented by the …, priority 1993, dated 1995)
